Like-named read-outs stand apart in the source and are kept apart here.
Tests used:
[1] = tested on: Diabrotica balteata (Corn Root Worm); assay: Activity against Diabrotica balteata (corn root worm), maize sprouts sprayed; assay type: in vivo; settings: 96 h, read-out: effect in at least one of the two categories (mortality or growth inhibition); for percent effect (mortality or growth inhibition) at 200 ppm: application rate 200 ppm, L2 larvae, 4 days after infestation
Description: Example B1: Activity Against Diabrotica balteata (Corn Root Worm)
Maize sprouts placed onto an agar layer in 24-well microtiter plates were treated with aqueous test solutions prepared from 10,000 ppm DMSO stock solutions by spraying. After drying, the plates were infested with L2 larvae (6 to 10 per well). The samples were assessed for mortality and growth inhibition in comparison to untreated samples 4 days after infestation.

[2] = tested on: Euschistus heros (Neotropical Brown Stink Bug); assay: Activity against Euschistus heros (neotropical brown stink bug), soybean leaves sprayed; assay type: in vivo; settings: 120 h, read-out: effect in at least one of the two categories (mortality or growth inhibition); for percent effect (mortality or growth inhibition) at 200 ppm: application rate 200 ppm, N2 nymphs, 5 days after infestation
Description: Example B2: Activity Against Euschistus heros (Neotropical Brown Stink Bug)
Soybean leaves on agar in 24-well microtiter plates were sprayed with aqueous test solutions prepared from 10,000 ppm DMSO stock solutions. After drying the leaves were infested with N2 nymphs. The samples were assessed for mortality and growth inhibition in comparison to untreated samples 5 days after infestation.

[3] = tested on: Plutella xylostella (Diamond Back Moth); assay: Activity against Plutella xylostella (diamond back moth), artificial diet; assay type: in vivo; settings: 192 h, read-out: effect in at least one of the two categories (mortality or growth inhibition); for percent effect (mortality or growth inhibition) at 200 ppm: application rate 200 ppm, eggs, 8 days after infestation
Description: Example B3: Activity Against Plutella xylostella (Diamond Back Moth)
24-well microtiter plates with artificial diet were treated with aqueous test solutions prepared from 10,000 ppm DMSO stock solutions by pipetting. After drying, Plutella eggs were pipetted through a plastic stencil onto a gel blotting paper and the plate was closed with it. The samples were assessed for mortality and growth inhibition in comparison to untreated samples 8 days after infestation.

[4] = tested on: Myzus persicae (Green Peach Aphid); assay: Activity against Myzus persicae (green peach aphid), feeding/contact activity; assay type: in vivo; settings: 144 h
Description: Example B4: Activity Against Myzus persicae (Green Peach Aphid) Feeding/Contact Activity
Sunflower leaf discs were placed onto agar in a 24-well microtiter plate and sprayed with aqueous test solutions prepared from 10,000 ppm DMSO stock solutions. After drying, the leaf discs were infested with an aphid population of mixed ages. The samples were assessed for mortality 6 days after infestation.

[5] = tested on: Spodoptera littoralis (Egyptian Cotton Leaf Worm); assay: Activity against Spodoptera littoralis (Egyptian cotton leaf worm), cotton leaf discs; assay type: in vivo; settings: foliar, 72 h, read-out: control (mortality, anti-feedant effect or growth inhibition)
Description: Example B5: Activity Against Spodoptera littoralis (Egyptian Cotton Leaf Worm)
Cotton leaf discs were placed onto agar in 24-well microtiter plates and sprayed with aqueous test solutions prepared from 10,000 ppm DMSO stock solutions. After drying the leaf discs were infested with five L1 larvae. The samples were assessed for mortality, anti-feeding effect, and growth inhibition in comparison to untreated samples 3 days after infestation. Control of Spodoptera littoralis by a test sample is given when at least one of the categories mortality, anti-feedant effect, and growth inhibition is higher than the untreated sample.

[6] = tested on: Frankliniella occidentalis (Western Flower Thrips); assay: Activity against Frankliniella occidentalis (western flower thrips), sunflower leaf discs; assay type: in vivo; settings: foliar, 168 h, application rate 200 ppm, mixed ages, 7 days after infestation
Description: Example B7: Activity Against Frankliniella occidentalis (Western Flower Thrips)
Sunflower leaf discs were placed on agar in 24-well microtiter plates and sprayed with aqueous test solutions prepared from 10,000 DMSO stock solutions. After drying the leaf discs were infested with a Frankliniella population of mixed ages. The samples were assessed for mortality 7 days after infestation.

[7] = tested on: Myzus persicae (Green Peach Aphid); assay: Activity against Myzus persicae (green peach aphid), systemic activity, pea seedlings; assay type: in vivo; settings: 144 h, test rate 24 ppm, roots in test solution, 6 days
Description: Example B8: Activity Against Myzus persicae (Green Peach Aphid) Systemic Activity
Roots of pea seedlings infested with an aphid population of mixed ages were placed directly into aqueous test solutions prepared from 10,000 DMSO stock solutions. The samples were assessed for mortality 6 days after placing seedlings into test solutions.

[8] = tested on: Bemisia tabaci (Cotton White Fly); assay: Activity against Bemisia tabaci (cotton white fly), cotton leaf discs; assay type: in vivo; settings: foliar, 144 h, application rate 200 ppm, adult white flies, 6 days after incubation
Description: Example B6: Activity Against Bemisia tabaci (Cotton White Fly)
Cotton leaf discs were placed on agar in 24-well microtiter plates and sprayed with aqueous test solutions prepared from 10,000 ppm DMSO stock solutions. After drying the leaf discs were infested with adult white flies. The samples were checked for mortality 6 days after incubation.

[9] = application rate 200 ppm, feeding/contact, mixed ages, 6 days after infestation, read-out: mortality
[10] = application rate 200 ppm, L1 larvae, 3 days after infestation

SMILES	percent effect (mortality or growth inhibition) at 200 ppm [1] [%]	percent effect (mortality or growth inhibition) at 200 ppm [2] [%]	percent effect (mortality or growth inhibition) at 200 ppm [3] [%]	mortality at 200 ppm [4, 9] [%]	percent control (mortality, anti-feedant effect or growth inhibition) at 200 ppm [5, 10] [%]	mortality at 200 ppm [6] [%]	percent control (mortality or growth inhibition) at 200 ppm [1] [%]	percent control (mortality or growth inhibition) at 200 ppm [2] [%]	percent control (mortality or growth inhibition) at 200 ppm [3] [%]	mortality at 200 ppm [4] [%]	percent control (mortality, anti-feedant effect or growth inhibition) at 200 ppm [5] [%]	mortality at 24 ppm [7] [%]	mortality at 200 ppm [8] [%]	melting point [°C]
CCS(=O)(=O)c1ccc(N(C)C(C)=O)nc1-c1ncc2c(OCC(F)(F)C(F)(F)F)nccn12 [Compound P11, N-[5-ethylsulfonyl-6-[8-(2,2,3,3,3-penta-fluoropropoxy)imidazo [1,5-a]pyrazin-3-yl]-2-pyridyl]-N-methyl-acetamide]	≥ 80	≥ 80	≥ 80	≥ 80	≥ 80	≥ 80	–	–	–	–	–	–	–	–
CCSc1cc(N=S(C)(C)=O)cnc1-c1ncc2c(OCC(F)(F)C(F)(F)F)nccn12 [Compound P17, [5-ethylsulfanyl-6-[8-(2,2,3,3,3-penta-fluoropropoxy)imidazo [1,5-a]pyrazin-3-yl]-3-pyridyl]imino-dimethyl-oxo-λ^6-sulfane]	≥ 80	≥ 80	≥ 80	–	≥ 80	≥ 80	–	–	–	–	–	–	–	–
CCS(=O)(=O)c1ccc(NC)nc1-c1ncc2c(OCC(F)(F)C(F)(F)F)nccn12 [Compound P10, 5-ethylsulfonyl-N-methyl-6-[8-(2,2,3,3,3-penta-fluoropropoxy)imidazo [1,5-a]pyrazin-3-yl]pyri-din-2-amine]	≥ 80	≥ 80	≥ 80	≥ 80	≥ 80	–	–	–	–	–	–	–	–	–
CCS(=O)(=O)c1cc(C2(C#N)CC2)cnc1-c1ncc2c(OCC(F)(F)C(F)(F)F)nccn12 [Compound P15, 1-[5-ethylsulfonyl-6-[8-(2,2,3,3,3-penta-fluoropropoxy)imidazo [1,5-a]pyrazin-3-yl]-3-pyridyl]cyclopropane-carbonitrile]	≥ 80	≥ 80	≥ 80	≥ 80	≥ 80	–	–	–	–	–	–	–	–	–
CCS(=O)(=O)c1cc(C2CC2)cnc1-c1ncc2c(OCC(F)(F)C(F)(F)F)nccn12 [Compound P21, 3-(5-cyclopropyl-3-ethylsulfonyl-2-pyridyl)-8-(2,2,3,3,3-penta-fluoropropoxy)imidazo [1,5-a]pyrazine]	≥ 80	≥ 80	≥ 80	≥ 80	≥ 80	–	–	–	–	–	–	–	–	–
CCS(=O)(=O)c1cccnc1-c1ncc2c(OCC(F)(F)C(F)(F)F)nccn12 [Compound P8, 3-(3-ethylsulfonyl-2-pyridyl)-8-(2,2,3,3,3-pentafluoropropoxy)imi-dazo[1,5-a]pyrazine]	–	–	–	–	–	–	≥ 80	≥ 80	≥ 80	≥ 80	≥ 80	–	–	–
CCS(=O)(=O)c1cc(N=S(C)(C)=O)cnc1-c1ncc2c(OCC(F)(F)C(F)(F)F)nccn12 [Compound P18, [5-ethylsulfonyl-6-[8-(2,2,3,3,3-penta-fluoropropoxy)imidazo [1,5-a]pyrazin-3-yl]-3-pyridyl]imino-dimethyl-oxo-λ^6-sulfane]	≥ 80	≥ 80	≥ 80	≥ 80	≥ 80	≥ 80	–	–	–	–	–	–	–	–
CCS(=O)(=O)c1cc(N(C)C(C)=O)cnc1-c1ncc2c(OCC(F)(F)C(F)(F)F)nccn12 [Compound P13, N-[5-ethylsulfonyl-6-[8-(2,2,3,3,3-penta-fluoropropoxy)imidazo [1,5-a]pyrazin-3-yl]-3-pyridyl]-N-methyl-acetamide]	≥ 80	≥ 80	≥ 80	≥ 80	≥ 80	–	–	–	–	–	–	≥ 80	–	–
CCS(=O)(=O)c1ccc(-n2cncn2)nc1-c1ncc2c(OCC(F)(F)C(F)(F)F)nccn12 [Compound P12, 3-[3-ethylsulfonyl-6-(1,2,4-triazol-1-yl)-2-pyridyl]-8-(2,2,3,3,3-penta-fluoropropoxy)imidazo [1,5-a]pyrazine]	≥ 80	≥ 80	≥ 80	≥ 80	≥ 80	–	–	–	–	–	–	–	≥ 80	–
CCS(=N)(=O)c1cc(OC(C)(C)C#N)cnc1-c1ncc2c(OCC(F)(F)C(F)(F)F)nccn12 (stereo not drawn) [Compound P52, 2-[[5-(ethylsulfonimidoyl)-6-[8-(2,2,3,3,3-penta-fluoropropoxy)imidazo [1,5-a]pyrazin-3-yl]-3-pyridyl]oxy]-2-methyl-propanenitrile]	≥ 80	–	≥ 80	≥ 80	≥ 80	–	–	–	–	–	–	–	≥ 80	–
CCS(=O)(=O)c1ccc(-c2ncccn2)nc1-c1ncc2c(OCC(F)(F)C(F)(F)F)nccn12 [Compound P25, 3-(3-ethylsulfonyl-6-pyrimidin-2-yl-2-pyridyl)-8-(2,2,3,3,3-penta-fluoropropoxy)imidazo [1,5-a]pyrazine]	≥ 80	≥ 80	≥ 80	≥ 80	≥ 80	–	–	–	–	–	–	–	–	–
CCS(=O)(=O)c1ccc(Cl)nc1-c1ncc2c(OCC(F)(F)C(F)(F)F)nccn12	–	–	–	–	–	–	–	–	–	–	–	–	–	140 to 143
CCS(=O)(=O)c1cc(Oc2ccccn2)cnc1-c1ncc2c(OCC(F)(F)C(F)(F)F)nccn12 [Compound P19, 3-[3-ethylsulfonyl-5-(2-pyridyloxy)-2-pyridyl]-8-(2,2,3,3,3-penta-fluoropropoxy)imidazo [1,5-a]pyrazine]	≥ 80	≥ 80	≥ 80	≥ 80	≥ 80	–	–	–	–	–	–	–	–	–
CCS(=O)(=O)c1cc(OC(C)(C)C#N)cnc1-c1ncc2c(OCC(F)(F)C(F)(F)F)nccn12 [Compound P51, 2-[[5-ethylsulfonyl-6-[8-(2,2,3,3,3-pentafluoropropoxy)imidazo [1,5-a]pyrazin-3-yl]-3-pyridyl]oxy]-2-methyl-propanenitrile]	≥ 80	≥ 80	≥ 80	≥ 80	≥ 80	≥ 80	–	–	–	–	–	–	≥ 80	–

Reference: patent US20220061324A1, “PESTICIDALLY ACTIVE HETEROCYCLIC DERIVATIVES WITH SULFUR CONTAINING SUBSTITUENTS” (SYNGENTA CROP PROTECTION AG, priority 2018, published 2022)
